3 molecules from article PMC10648927, “Examining the activity of cefepime-taniborbactam against Burkholderia cepacia complex and Burkholderia gladioli isolated from cystic fibrosis patients in the United States” (Antimicrobial Agents and Chemotherapy, 2023) can be followed below.

The structures appear in SMILES notation. Values after ≈ are worked out from the molar mass of the structure shown. A value given as a limit tells only on which side of the number the result lay.

What all share (set-up): agar dilution MIC, growth inhibition of clinical Burkholderia isolates
In general terms: Agar dilution tests growth on a series of plates holding different concentrations.

Experiment [1] deals with T1, B. multivorans AU10398.
T1 construct: AU10398
The experiment in a line: microbe, parasite or virus in culture. The following applies: Burkholderia multivorans, AU10398. In a few lines:
(§1)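 MICs by agar dilution against Bcc and B. gladioli clinical isolates, interpreted with CLSI breakpoints where available; K. pneumoniae ATCC 700603 (SHV-18) and ATCC BAA-1705 (KPC) served as quality controls.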

In experiment [2] the test system is T2, B. cenocepacia AU20998.
T2 construct: AU20998
The experiment in a line: microbe, parasite or virus in culture. The following applies: Burkholderia cenocepacia, AU20998. In a few lines: as §1

Experiment [3] relates to T3, B. pseudomultivorans AU19682.
T3 construct: AU19682
The experiment in a line: organism not typed. In a few lines: as §1

The subject of experiment [4] is T4, B. multivorans AU17135.
T4 construct: AU17135
The experiment in a line: microbe, parasite or virus in culture. The following applies: Burkholderia multivorans, AU17135. The method, boiled down:
as §1

The subject of experiment [5] is T5, B. cenocepacia AU8635.
T5 construct: AU8635
Description: microbe, parasite or virus in culture. The following applies: Burkholderia cenocepacia, AU8635. The method, boiled down:
as §1

Experiment [6] deals with T6, B. multivorans AU11204.
T6 construct: AU11204
Description: microbe, parasite or virus in culture. To be noted: Burkholderia multivorans, AU11204. The method, boiled down:
as §1

Experiment [7] relates to T7, B. multivorans AU13919.
T7 construct: AU13919
Description: microbe, parasite or virus in culture. The following applies: Burkholderia multivorans, AU13919. The method, boiled down: as §1

The test system of experiment [8] is T8, B. multivorans AU15954.
T8 construct: AU15954
Description: microbe, parasite or virus in culture. To be noted: Burkholderia multivorans, AU15954. The method, boiled down:
as §1

Experiment [9] relates to T9, B. multivorans AU23668.
T9 construct: AU23668
The experiment in a line: microbe, parasite or virus in culture. The following applies: Burkholderia multivorans, AU23668. The method, boiled down: as §1

The subject of experiment [10] is T10, B. cenocepacia AU6550.
T10 construct: AU6550
The experiment in a line: microbe, parasite or virus in culture. To be noted: Burkholderia cenocepacia, AU6550. The method, boiled down:
as §1

For experiment [11], the system named is T11, B. multivorans AU23690.
T11 construct: AU23690
Description: microbe, parasite or virus in culture. The following applies: Burkholderia multivorans, AU23690. In a few lines:
as §1

In experiment [12] the test system is T12, B. ambifaria AU20319.
T12 construct: AU20319
The experiment in a line: microbe, parasite or virus in culture. To be noted: Burkholderia ambifaria, AU20319. The method, boiled down: as §1

In experiment [13] the test system is T13, B. ambifaria AU5203.
T13 construct: AU5203
Description: microbe, parasite or virus in culture. To be noted: Burkholderia ambifaria, AU5203. The method, boiled down: as §1

Experiment [14] concerns T14, B. cenocepacia AU19530.
T14 construct: AU19530
The experiment in a line: microbe, parasite or virus in culture. The following applies: Burkholderia cenocepacia, AU19530. The method, boiled down:
as §1

Experiment [15] deals with T15, B. contaminans AU20979.
T15 construct: AU20979
The experiment in a line: organism not typed. The method, boiled down: as §1

The test system of experiment [16] is T16, B. multivorans AU14371.
T16 construct: AU14371
Description: microbe, parasite or virus in culture. The following applies: Burkholderia multivorans, AU14371. The method, boiled down:
as §1

Experiment [17] has as its system T17, B. multivorans AU19659.
T17 construct: AU19659
The experiment in a line: microbe, parasite or virus in culture. To be noted: Burkholderia multivorans, AU19659. In a few lines:
as §1

For experiment [18], the system named is T18, B. cepacia AU15677.
T18 construct: AU15677
The experiment in a line: microbe, parasite or virus in culture. The following applies: Burkholderia cepacia, AU15677. In a few lines: as §1

The subject of experiment [19] is T19, B. cepacia AU0329.
T19 construct: AU0329
Description: microbe, parasite or virus in culture. The following applies: Burkholderia cepacia, AU0329. In a few lines: as §1

The subject of experiment [20] is T20, B. multivorans AU19729.
T20 construct: AU19729
The experiment in a line: microbe, parasite or virus in culture. The following applies: Burkholderia multivorans, AU19729. In a few lines: as §1

In experiment [21] the test system is T21, B. contaminans AU15669.
T21 construct: AU15669
Description: organism not typed. The method, boiled down: as §1

Experiment [22] has as its system T22, B. arboris AU14372.
T22 construct: AU14372
Description: organism not typed. The method, boiled down:
as §1

For the molecule `CO/N=C(\C(=O)N[C@@H]1C(=O)N2C(C(=O)[O-])=C(C[N+]3(C)CCCC3)CS[C@H]12)c1csc(N)n1` [cefepime], the MIC in [1] was above 32 µg/mL; in [2] it was above 32 µg/mL; in experiment [3], above 32 µg/mL; in experiment [4], 4 µg/mL (≈ 8.32 µM); in experiment [5], above 32 µg/mL; in [6] it was 4 µg/mL (≈ 8.32 µM). The MIC in [7] was 8 µg/mL (≈ 16.6 µM); in experiment [8] it was 8 µg/mL (≈ 16.6 µM); in experiment [9] it was 4 µg/mL (≈ 8.32 µM); in [10], 32 µg/mL (≈ 66.6 µM); in [11], 32 µg/mL (≈ 66.6 µM); in [12] it was above 32 µg/mL. For the same molecule, the MIC was 16 µg/mL (≈ 33.3 µM) in experiment [13]; above 32 µg/mL in experiment [14]; above 32 µg/mL in [15]; 8 µg/mL (≈ 16.6 µM) in experiment [16]; above 32 µg/mL in [17]; 32 µg/mL (≈ 66.6 µM) in experiment [18]. Besides, the MIC in [19], in [20], in experiment [21] and in experiment [22] was above 32 µg/mL in each case.
As for `C[C@H]1COc2c(N3CCN(C)CC3)c(F)cc3c(=O)c(C(=O)O)cn1c23` [levofloxacin], the MIC in experiment [1] was 16 µg/mL (≈ 44.3 µM); in [2], above 32 µg/mL; in experiment [3], 16 µg/mL (≈ 44.3 µM); in [4] it was 2 µg/mL (≈ 5.53 µM); in [5], above 32 µg/mL; in experiment [6], 2 µg/mL (≈ 5.53 µM). In addition, the MIC in experiment [7] is 2 µg/mL (≈ 5.53 µM); in [8], 2 µg/mL (≈ 5.53 µM); in experiment [9], 2 µg/mL (≈ 5.53 µM); in experiment [10], 8 µg/mL (≈ 22.1 µM); in experiment [11], above 32 µg/mL; in experiment [12], 1 µg/mL (≈ 2.77 µM). Further, the MIC in [13] was above 32 µg/mL; in experiment [14], 16 µg/mL (≈ 44.3 µM); in [15], 32 µg/mL (≈ 88.6 µM); in [16], 2 µg/mL (≈ 5.53 µM); in [17], 16 µg/mL (≈ 44.3 µM); in experiment [18], 4 µg/mL (≈ 11.1 µM). Also, the MIC in experiment [19] is above 32 µg/mL; in experiment [20], 16 µg/mL (≈ 44.3 µM); in experiment [21], 8 µg/mL (≈ 22.1 µM); in experiment [22], 8 µg/mL (≈ 22.1 µM).
In the case of `C[C@@H](O)[C@H]1C(=O)N2C(C(=O)O)=C(S[C@@H]3CN[C@H](C(=O)N(C)C)C3)[C@H](C)[C@H]12` [meropenem], the MIC was determined as 8 µg/mL (≈ 20.9 µM) in experiment [1]; 8 µg/mL (≈ 20.9 µM) in [2]; 8 µg/mL (≈ 20.9 µM) in [3]; 4 µg/mL (≈ 10.4 µM) in [4]; 16 µg/mL (≈ 41.7 µM) in experiment [5]; 2 µg/mL (≈ 5.22 µM) in [6]. The MIC in experiment [7] is 8 µg/mL (≈ 20.9 µM); in experiment [8], 4 µg/mL (≈ 10.4 µM); in experiment [9], 2 µg/mL (≈ 5.22 µM); in [10], 8 µg/mL (≈ 20.9 µM); in [11], 4 µg/mL (≈ 10.4 µM); in experiment [12], 4 µg/mL (≈ 10.4 µM). The MIC is 4 µg/mL (≈ 10.4 µM) in [13]; 8 µg/mL (≈ 20.9 µM) in [14]; 8 µg/mL (≈ 20.9 µM) in experiment [15]; 4 µg/mL (≈ 10.4 µM) in experiment [16]; 32 µg/mL (≈ 83.4 µM) in experiment [17]; 4 µg/mL (≈ 10.4 µM) in [18]. Also, the MIC worked out at 2 µg/mL (≈ 5.22 µM) in [19], 16 µg/mL (≈ 41.7 µM) in experiment [20], 16 µg/mL (≈ 41.7 µM) in experiment [21] and 16 µg/mL (≈ 41.7 µM) in [22].
